This passage reports IC50 results from ChEMBL document CHEMBL3886380, “Oxazole derivatives useful as modulators of FAAH” (2015).

Usually IC50 stands for the concentration that inhibits the measured activity by half.

The assay deals with T1, Fatty-acid amide hydrolase 1 (Homo sapiens, UniProt O00519).
T1 sequence (O00519 whole entry): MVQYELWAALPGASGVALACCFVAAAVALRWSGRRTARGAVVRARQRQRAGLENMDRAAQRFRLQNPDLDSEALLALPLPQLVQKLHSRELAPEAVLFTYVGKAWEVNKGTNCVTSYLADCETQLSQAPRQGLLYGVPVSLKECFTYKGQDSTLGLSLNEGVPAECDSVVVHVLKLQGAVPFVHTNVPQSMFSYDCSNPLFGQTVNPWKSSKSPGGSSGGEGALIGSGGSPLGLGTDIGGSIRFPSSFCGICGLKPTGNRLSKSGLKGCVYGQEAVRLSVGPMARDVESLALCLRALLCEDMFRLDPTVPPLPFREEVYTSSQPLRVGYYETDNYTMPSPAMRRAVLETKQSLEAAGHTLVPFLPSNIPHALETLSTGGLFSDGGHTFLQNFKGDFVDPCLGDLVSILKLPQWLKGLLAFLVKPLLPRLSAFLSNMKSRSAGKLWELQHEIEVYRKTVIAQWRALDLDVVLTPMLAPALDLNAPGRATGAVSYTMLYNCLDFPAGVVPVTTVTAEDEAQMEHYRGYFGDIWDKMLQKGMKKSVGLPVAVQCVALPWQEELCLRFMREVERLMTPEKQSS
Description: FAAH Assay: Enzyme activity was demonstrated in a radioenzymatic test based on measuring the product of hydrolysis (ethanolamine [3]H) of anandamide [ethanolamine 1-^3H] (American Radiolabeled Chemicals; 1 mCi/ml) with FAAH (Life Sciences (1995), 56, 1999-2005 and Journal of Pharmacology and Experimented Therapeutics (1997), 283, 729-734), Analytical. Biochemistry (2003), 318, 270-5. In ….

The molecule `CN1CCN(CCOC(=O)N2CCC(c3nc(-c4ccc([S+](C)[O-])cc4)c(Sc4ccc(Cl)cn4)o3)CC2)CC1` (configuration not stated) came in with an IC50 of 3.09 µM. Regarding `C[N+]1(C)CCN(c2ccc(-c3nc(C4CCOCC4)oc3Sc3ccc(Cl)cc3)cn2)CC1`, the IC50 came to 9.15 µM.
